Experimental data from patent US20140221361A1, “C-19 MODIFIED TRITERPENOIDS WITH HIV MATURATION INHIBITORY ACTIVITY” (priority 2013, published 2014).

The compounds below were run on recombinant NL4-3 virus (Renilla luciferase in nef, Gag P373S) (assay: HIV cell culture assay (luciferase reporter, MT-2 cells)). Conditions: MT-2 cells infected for 4-5 days with NLRluc recombinants; luciferase activity; serial dilutions of inhibitor.
Format: cell-based, HIV-1
Experimental: MT-2 cells and 293T cells were obtained from the NIH AIDS Research and Reference Reagent Program. MT-2 cells were propagated in RPMI 1640 media supplemented with 10% heat inactivated fetal bovine serum, […]. The 293T cells were propagated in DMEM media supplemented with 10% heat inactivated fetal bovine serum (FBS), 100 units/ml penicillin G and 100 µg/ml streptomycin. The proviral DNA clone of NL4-3 was obtained from the NIH AIDS Research and Reference Reagent Program. A recombinant NL4-3 virus, in which a section of the nef gene from NL4-3 was replaced with the Renilla luciferase gene, was used as a reference virus. In addition, residue Gag P373 was converted to P373S. Briefly, the recombinant virus was prepared by transfection of the altered proviral clone of NL4-3. Transfections were performed in 293T cells using LipofectAMINE PLUS from Invitrogen (Carlsbad, Calif.), according to manufacturer's instruction. The virus was titered in MT-2 cells using luciferase enzyme activity as a marker. Luciferase was quantitated using the Dual Luciferase kit from Promega (Madison, Wis.), with modifications to the manufacturer's protocol. The diluted Passive Lysis solution was pre-mixed with the re-suspended Luciferase Assay Reagent and the re-suspended Stop & Glo Substrate (2:1:1 ratio). Fifty (50) μL of the mixture was added to each aspirated well on assay plates and luciferase activity was measured immediately on a Wallac TriLux (Perkin-Elmer). Antiviral activities of inhibitors toward the recombinant virus were quantified by measuring luciferase activity in cells infected for 4-5 days with NLRluc recombinants in the presence serial dilutions of the inhibitor.
CC(C(=O)O)[C@@H]1CC[C@]2(NCCN3CCS(=O)(=O)CC3)CC[C@]3(C)[C@H](CC[C@@H]4[C@@]5(C)CC=C(c6ccc(C(=O)O)c(F)c6)C(C)(C)[C@@H]5CC[C@]43C)[C@@H]12 (stereo partly drawn) [Example A6, 4-((1R,3aS,5aR,5bR,7aR,11aS,11bR,13aR,13bR)-1-(1-carboxyethyl)-3a-((2-(1,1-dioxidothiomorpholino)ethyl)amino)-5a,5b,8,8,11a-pentamethyl-2,3,3a,4,5,5a,5b,6,7,7a,8,11,11a,11b,12,13,13a,13b-octadecahydro-1H-cyclopenta[a]chrysen-9-yl)-2-fluorobenzoic acid] gave an EC50 of 390 nM.
Compound CC(C(=O)O)[C@@H]1CC[C@]2(NCCN3CCS(=O)(=O)CC3)CC[C@]3(C)[C@H](CC[C@@H]4[C@@]5(C)CC=C(c6ccc(C(=O)O)c(F)c6)C(C)(C)[C@@H]5CC[C@]43C)[C@@H]12 (stereo partly drawn) [Example A7, 4-((1R,3aS,5aR,5bR,7aR,11aS,11bR,13aR,13bR)-1-(1-carboxyethyl)-3a-((2-(1,1-dioxidothiomorpholino)ethyl)amino)-5a,5b,8,8,11a-pentamethyl-2,3,3a,4,5,5a,5b,6,7,7a,8,11,11a,11b,12,13,13a,13b-octadecahydro-1H-cyclopenta[a]chrysen-9-yl)-2-fluorobenzoic acid] has an EC50 of 110 nM.

Same assay, conditions: Renilla, NL43, MT-2 cells infected for 4-5 days with NLRluc recombinants; luciferase activity; serial dilutions of inhibitor
C=C(CN(C)C(=O)CCC(=O)OC)[C@@H]1CC[C@]2(C(=O)NCCN(C)C)CC[C@]3(C)[C@H](CC[C@@H]4[C@@]5(C)CC=C(c6ccc(C(=O)O)cc6)C(C)(C)[C@@H]5CC[C@]43C)[C@@H]12 [Example 18, 4-((1R,3aS,5aR,5bR,7aR,11aS,11bR,13aR,13bS)-3a-(2-(dimethylamino)ethylcarbamoyl)-1-(3-(4-methoxy-N-methyl-4-oxobutanamido)prop-1-en-2-yl)-5a,5b,8,8,11a-pentamethyl-2,3,3a,4,5,5a,5b,6,7,7a,8,11,11a,11b,12,13,13a,13b-octadecahydro-1H-cyclopenta[a]chrysen-9-yl)benzoic acid] showed an EC50 of 1.87 nM.
In the case of CC(=CC(=O)O)[C@@H]1CC[C@]2(C(=O)NCCN(C)C)CC[C@]3(C)[C@H](CC[C@@H]4[C@@]5(C)CC[C@H](c6ccc(C(=O)O)cc6)C(C)(C)[C@@H]5CC[C@]43C)[C@@H]12 [Example 19, 4-((1R,3aS,5aR,5bR,7aS,9S,11aS,11bR,13aR,13bR)-1-(1-carboxyprop-1-en-2-yl)-3a-((2-(dimethylamino)ethyl)carbamoyl)-5a,5b,8,8,11a-pentamethylicosahydro-1H-cyclopenta[a]chrysen-9-yl)benzoic acid], the EC50 is reported as 20 nM.
CC(C)(O)[C@@H]1CC[C@]2(NCCN3CCS(=O)(=O)CC3)CC[C@]3(C)[C@H](CC[C@@H]4[C@@]5(C)CC=C(C6=CCC(C(=O)O)CC6)C(C)(C)[C@@H]5CC[C@]43C)[C@@H]12 (stereo partly drawn) [Example 22, 4-((1R,3aS,5aR,5bR,7aR,11aS,11bR,13aR,13bS)-3a-((2-(1,1-dioxidothiomorpholino)ethyl)amino)-1-(2-hydroxypropan-2-yl)-5a,5b,8,8,11a-pentamethyl-2,3,3a,4,5,5a,5b,6,7,7a,8,11,11a,11b,12,13,13a,13b-octadecahydro-1H-cyclopenta[a]chrysen-9-yl)cyclohex-3-enecarboxylic acid] gave an EC50 of 0.519 nM.
Compound CC(C)(O)[C@@H]1CC[C@]2(NCCN3CC4CC3CO4)CC[C@]3(C)[C@H](CC[C@@H]4[C@@]5(C)CC=C(C6=CCC(C(=O)O)CC6)C(C)(C)[C@@H]5CC[C@]43C)[C@@H]12 (stereo partly drawn) [Example 23, 4-((1R,3aS,5aR,5bR,7aR,11aS,11bR,13aR,13bS)-3a-((2-(2-oxa-5-azabicyclo[2.2.1]heptan-5-yl)ethyl)amino)-1-(2-hydroxypropan-2-yl)-5a,5b,8,8,11a-pentamethyl-2,3,3a,4,5,5a,5b,6,7,7a,8,11,11a,11b,12,13,13a,13b-octadecahydro-1H-cyclopenta[a]chrysen-9-yl)cyclohex-3-enecarboxylic acid] has an EC50 of 0.779 nM.
In the case of C=C(CO)[C@@H]1CC[C@]2(NC(=O)OC(C)(C)C)CC[C@]3(C)[C@H](CC[C@@H]4[C@@]5(C)CC=C(c6ccc(C(=O)O)c(F)c6)C(C)(C)[C@@H]5CC[C@]43C)[C@@H]12 [Example A1, 4-((1R,3aS,5aR,5bR,7aR,11aS,11bR,13aR,13bS)-3a-((tert-butoxycarbonyl)amino)-1-(3-hydroxyprop-1-en-2-yl)-5a,5b,8,8,11a-pentamethyl-2,3,3a,4,5,5a,5b,6,7,7a,8,11,11a,11b,12,13,13a,13b-octadecahydro-1H-cyclopenta[a]chrysen-9-yl)-2-fluorobenzoic acid], the EC50 is reported as 20 nM.
C=C(CO)[C@@H]1CC[C@]2(N)CC[C@]3(C)[C@H](CC[C@@H]4[C@@]5(C)CC=C(c6ccc(C(=O)O)c(F)c6)C(C)(C)[C@@H]5CC[C@]43C)[C@@H]12 [Example A2] showed an EC50 of 10 nM.
Compound CC1([C@@H]2CC[C@]3(NCCN4CCS(=O)(=O)CC4)CC[C@]4(C)[C@H](CC[C@@H]5[C@@]6(C)CC=C(c7ccc(C(=O)O)c(F)c7)C(C)(C)[C@@H]6CC[C@]54C)[C@@H]23)CO1 (stereo partly drawn) [Example A3, 4-((1R,3aS,5aR,5bR,7aR,11aS,11bR,13aR,13bS)-3a-((2-(1,1-dioxidothiomorpholino)ethyl)amino)-5a,5b,8,8,11a-pentamethyl-1-(2-methyloxiran-2-yl)-2,3,3a,4,5,5a,5b,6,7,7a,8,11,11a,11b,12,13,13a,13b-octadecahydro-1H-cyclopenta[a]chrysen-9-yl)-2-fluorobenzoic acid] has an EC50 of 10 nM.
CC(C)(C)OC(=O)N[C@@H]1CC[C@]2(C(=O)O)CC[C@]3(C)[C@H](CC[C@@H]4[C@@]5(C)CC=C(C6=CCC(C(=O)O)CC6)C(C)(C)[C@@H]5CC[C@]43C)[C@@H]12 (stereo partly drawn) [Example A8, (1R,3aR,5aR,5bR,7aR,11aS,11bR,13aR,13bR)-1-((tert-butoxycarbonyl)amino)-9-(4-carboxycyclohex-1-en-1-yl)-5a,5b,8,8,11a-pentamethyl-2,3,3a,4,5,5a,5b,6,7,7a,8,11,11a,11b,12,13,13a,13b-octadecahydro-1H-cyclopenta[a]chrysene-3a-carboxylic acid] gave an EC50 of 6.56 nM.
Work on CN(C)CCNC(=O)[C@]12CC[C@@H](NC(=O)OC(C)(C)C)[C@@H]1[C@H]1CC[C@@H]3[C@@]4(C)CC=C(C5=CCC(C(=O)O)CC5)C(C)(C)[C@@H]4CC[C@@]3(C)[C@]1(C)CC2 (stereo partly drawn) [Example A9, 4-((1R,3aR,5aR,5bR,7aR,11aS,11bR,13aR,13bR)-1-((tert-butoxycarbonyl)amino)-3a-((2-(dimethylamino)ethyl)carbamoyl)-5a,5b,8,8,11a-pentamethyl-2,3,3a,4,5,5a,5b,6,7,7a,8,11,11a,11b,12,13,13a,13b-octadecahydro-1H-cyclopenta[a]chrysen-9-yl)cyclohex-3-enecarboxylic acid] yielded an EC50 of 1.15 nM.
Compound CC(C)(O)[C@@H]1CC[C@]2(NCCN3CCS(=O)(=O)CC3)CC[C@]3(C)[C@H](CC[C@@H]4[C@@]5(C)CC=C(c6ccc(C(=O)O)cc6)C(C)(C)[C@@H]5CC[C@]43C)[C@@H]12 [Example B3, 4-((1R,3aS,5aR,5bR,7aR,11aS,11bR,13aR,13bS)-3a-((2-(1,1-dioxidothiomorpholino)ethyl)amino)-1-(2-hydroxypropan-2-yl)-5a,5b,8,8,11a-pentamethyl-2,3,3a,4,5,5a,5b,6,7,7a,8,11,11a,11b,12,13,13a,13b-octadecahydro-1H-cyclopenta[a]chrysen-9-yl)benzoic acid] has an EC50 of 1.3 nM.
Compound COC(C)(C)[C@@H]1CC[C@]2(NCCN3CCS(=O)(=O)CC3)CC[C@]3(C)[C@H](CC[C@@H]4[C@@]5(C)CC=C(c6ccc(C(=O)O)cc6)C(C)(C)[C@@H]5CC[C@]43C)[C@@H]12 [Example B4, 4-((1R,3aS,5aR,5bR,7aR,11aS,11bR,13aR,13bS)-3a-((2-(1,1-dioxidothiomorpholino)ethyl)amino)-1-(2-methoxypropan-2-yl)-5a,5b,8,8,11a-pentamethyl-2,3,3a,4,5,5a,5b,6,7,7a,8,11,11a,11b,12,13,13a,13b-octadecahydro-1H-cyclopenta[a]chrysen-9-yl)benzoic acid] has an EC50 of 2.06 nM.
COCC(C)[C@@H]1CC[C@]2(NCCN3CCS(=O)(=O)CC3)CC[C@]3(C)[C@H](CC[C@@H]4[C@@]5(C)CC=C(c6ccc(C(=O)O)cc6)C(C)(C)[C@@H]5CC[C@]43C)[C@@H]12 (stereo partly drawn) [Example B7, 4-((1R,3aS,5aR,5bR,7aR,11aS,11bR,13aR,13bR)-3a-((2-(1,1-dioxidothiomorpholino)ethyl)amino)-1-(1-methoxypropan-2-yl)-5a,5b,8,8,11a-pentamethyl-2,3,3a,4,5,5a,5b,6,7,7a,8,11,11a,11b,12,13,13a,13b-octadecahydro-1H-cyclopenta[a]chrysen-9-yl)benzoic acid] gave an EC50 of 0.945 nM.
